Values of other authors, collected in patent US20110047631A1, “HEAT SHOCK PROTEIN DEFICIENCIES AS MODEL SYSTEMS FOR BRAIN PATHOLOGY AND CANCER” (Medical College of Georgia Research Institute Inc., priority 2009, published 2011).

Key:
[1] = system: Hsps
[2] = system: mouse models of Amyotrophic Lateral Sclerosis (ALS)
[3] = 8 mg/kg per mice daily dose

In the case of CC1=C(O)C(=O)C=C2C1=CC=C1[C@@]2(C)CC[C@@]2(C)[C@@H]3C[C@](C)(C(=O)O)CC[C@]3(C)CC[C@]12C [Celasterol], the “expression of Hsps” value [1] is given as “enhance the expression of Hsps”, the “neuronal cell death and life span” value [2] is given as “block neuronal cell death and extend the life of these mice” and the toxicity [3] is given as “no toxicity”.
